From article PMC12508057, “Discovery of ETI41 and ETI60: novel selective endosomal Toll-like receptor inhibitors for the treatment of autoimmune diseases” (Experimental & Molecular Medicine, 2025)
Read-outs that look alike come from different tables or passages of the source.

Target: T1, TLR7 (Mus musculus, UniProt P58681)
T1 construct: endogenous in cells; host or cells: RAW 264.7
T1 sequence (P58681 27-1050): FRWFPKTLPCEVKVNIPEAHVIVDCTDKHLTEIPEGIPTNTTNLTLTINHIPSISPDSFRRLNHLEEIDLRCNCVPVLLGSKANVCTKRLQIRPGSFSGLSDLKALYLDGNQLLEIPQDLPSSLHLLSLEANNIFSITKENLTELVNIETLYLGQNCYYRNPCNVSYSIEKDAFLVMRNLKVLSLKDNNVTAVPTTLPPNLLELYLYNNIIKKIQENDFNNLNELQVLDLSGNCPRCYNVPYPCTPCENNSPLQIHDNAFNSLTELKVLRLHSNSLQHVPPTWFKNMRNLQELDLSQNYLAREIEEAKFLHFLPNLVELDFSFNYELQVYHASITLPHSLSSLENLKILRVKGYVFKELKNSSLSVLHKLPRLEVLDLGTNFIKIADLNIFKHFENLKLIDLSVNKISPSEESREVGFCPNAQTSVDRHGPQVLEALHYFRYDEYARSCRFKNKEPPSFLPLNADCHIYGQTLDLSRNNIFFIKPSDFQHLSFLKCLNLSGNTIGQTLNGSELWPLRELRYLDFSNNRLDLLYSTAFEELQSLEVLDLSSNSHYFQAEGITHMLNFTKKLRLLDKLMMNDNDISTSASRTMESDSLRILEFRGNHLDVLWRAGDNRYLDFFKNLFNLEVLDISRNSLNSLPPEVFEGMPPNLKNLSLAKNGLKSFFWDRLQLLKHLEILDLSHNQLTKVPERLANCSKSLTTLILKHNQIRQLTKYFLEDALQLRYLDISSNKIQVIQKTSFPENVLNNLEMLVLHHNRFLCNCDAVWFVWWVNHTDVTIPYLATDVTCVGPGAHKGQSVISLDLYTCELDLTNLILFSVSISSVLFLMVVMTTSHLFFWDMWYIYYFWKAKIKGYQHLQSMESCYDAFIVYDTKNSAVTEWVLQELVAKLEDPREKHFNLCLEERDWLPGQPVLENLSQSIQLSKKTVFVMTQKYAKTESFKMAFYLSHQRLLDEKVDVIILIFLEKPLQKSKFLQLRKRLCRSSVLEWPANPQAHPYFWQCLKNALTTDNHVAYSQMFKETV
Assay: TLR7 inhibition, TNF-α secretion (ELISA) in RAW 264.7
Assay type: cell-based
Details: for TLR7 TI value: therapeutic index, RAW 264.7
Procedure: RAW 264.7 and differentiated THP-1 cells were seeded into 96-well plates at 2 × 10^4 cells per well, while Daudi cells were seeded at 5 × 10^4 cells per well. After stabilization for 30 min, cells were stimulated with specific TLR agonists for 4 or 24 h. Supernatants were diluted and transferred to precoated ELISA plates to measure TNF-α secretion using kits from Invitrogen. Optical absorbance was measured using a BioTek Synergy HTX multimode microplate reader, and data were interpolated using BioTek Gen5 software.
One-tailed paired Student’s t-tests were performed using Microsoft Excel (Microsoft). Semi-logarithmic conversions and nonregression curve analyses for calculating 50% lethal concentration (LC50) and 50% inhibitory concentration (IC50) values were conducted using GraphPad Prism 7.0 (GraphPad). The therapeutic index was calculated as […]. Animal experimental results are expressed as mean ± standard deviation and analyzed using SPSS v.20 (IBM SPSS Statistics). Homogeneity of variance was assessed using Levene’s test.
The cells were activated with agonistic ligands: […], TLR3 (poly I:C, 2 μg/ml, 24 h), TLR4 (LPS, 10 or 100 ng/ml, 4 h), TLR5 (FLA-ST, 500 ng/ml, 4 h), TLR7 (ORN06/LyoVec, 2 μg/ml, 24 h; and IMQ, 1 μg/ml, 4 h), TLR8 (TL8-506, 2 μg/ml, 24 h) and TLR9 (ODN2395, 1 μM, 4 h) at various concentrations in RAW 264.7 cells, human Daudi cells and THP-1 cells. Data are from at least three independent experiments (n = 3) and statistical differences between the induced case and other cases were analyzed and verified using a one-tailed Student’s t-test (*P < 0.05, **P < 0.01, ***P < 0.001).

Compound	IC50 [nM]	TLR7 TI value	IC50 (RAW 264.7 cell line, read-out: TLR7 IC50 (mTNFα)) [nM]
Cc1cc2c(N)c3c(nc2n1CCCN(C)C)CCCCCC3 [ETI41]	630	106.63	–
COc1ccc2c3c(N)c4c(nc3n(CCCN(C)C)c2c1)CCCC4 [ETI60]	–	75.65	680
